Calls of active or inactive are those of the source. No cut-off for these calls is given here.
Legend:
[1] = target: T1, Serine/threonine-protein kinase PLK4 (Homo sapiens) (UniProt O00444); assay: Inhibition of PLK4 (unknown origin) at 1 uM relative to control
T1 sequence (whole entry): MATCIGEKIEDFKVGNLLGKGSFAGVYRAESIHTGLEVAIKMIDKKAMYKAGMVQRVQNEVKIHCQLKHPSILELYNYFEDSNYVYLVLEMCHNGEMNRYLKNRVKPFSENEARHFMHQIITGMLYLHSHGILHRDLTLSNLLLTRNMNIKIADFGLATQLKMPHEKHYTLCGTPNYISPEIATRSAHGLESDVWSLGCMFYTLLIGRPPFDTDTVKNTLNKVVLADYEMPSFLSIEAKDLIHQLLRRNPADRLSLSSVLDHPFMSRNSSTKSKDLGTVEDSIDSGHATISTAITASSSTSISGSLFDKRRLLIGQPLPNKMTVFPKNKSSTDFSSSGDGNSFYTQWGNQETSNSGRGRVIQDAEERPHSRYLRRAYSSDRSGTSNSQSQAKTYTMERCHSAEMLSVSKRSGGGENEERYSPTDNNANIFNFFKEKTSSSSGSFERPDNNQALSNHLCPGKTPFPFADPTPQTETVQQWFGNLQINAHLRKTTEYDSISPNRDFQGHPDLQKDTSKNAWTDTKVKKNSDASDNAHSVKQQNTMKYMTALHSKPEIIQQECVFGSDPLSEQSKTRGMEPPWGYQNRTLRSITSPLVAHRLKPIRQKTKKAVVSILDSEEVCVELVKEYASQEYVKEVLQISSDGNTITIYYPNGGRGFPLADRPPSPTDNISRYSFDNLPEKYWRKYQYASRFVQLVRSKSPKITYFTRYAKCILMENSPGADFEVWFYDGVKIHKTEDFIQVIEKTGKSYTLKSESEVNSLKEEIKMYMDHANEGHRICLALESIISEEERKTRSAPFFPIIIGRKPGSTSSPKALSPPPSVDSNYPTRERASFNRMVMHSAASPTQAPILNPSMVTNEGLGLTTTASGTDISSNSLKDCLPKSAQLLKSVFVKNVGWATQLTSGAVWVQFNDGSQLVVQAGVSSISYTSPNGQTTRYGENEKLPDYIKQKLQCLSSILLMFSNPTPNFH

[2] = system: Mus musculus; assay: Anti-inflammatory activity in imiquimod-induced BALB/c mouse psoriasis model assessed as […] in skin thickness at TOP administration, 2 % applied for 7 days by hematoxylin and eosin staining based assay; assay type: functional, organism-based; details: time 7.0 day
[3] = system: Mus musculus; assay: Anti-inflammatory activity in imiquimod-induced BALB/c mouse psoriasis model assessed as decrease in clinical sign of psoriasis in skin at TOP administration, 2 % applied for 7 days; assay type: functional, organism-based; details: time 7.0 day
[4] = target: T2, Tyrosine-protein kinase ZAP-70 (Homo sapiens, UniProt P43403); assay: Inhibition of ZAP-70 (unknown origin) using ULight-TK peptide as substrate incubated for 120 mins in presence of ATP by Lance Ultra Kinase assay
T2 sequence (P43403 whole entry): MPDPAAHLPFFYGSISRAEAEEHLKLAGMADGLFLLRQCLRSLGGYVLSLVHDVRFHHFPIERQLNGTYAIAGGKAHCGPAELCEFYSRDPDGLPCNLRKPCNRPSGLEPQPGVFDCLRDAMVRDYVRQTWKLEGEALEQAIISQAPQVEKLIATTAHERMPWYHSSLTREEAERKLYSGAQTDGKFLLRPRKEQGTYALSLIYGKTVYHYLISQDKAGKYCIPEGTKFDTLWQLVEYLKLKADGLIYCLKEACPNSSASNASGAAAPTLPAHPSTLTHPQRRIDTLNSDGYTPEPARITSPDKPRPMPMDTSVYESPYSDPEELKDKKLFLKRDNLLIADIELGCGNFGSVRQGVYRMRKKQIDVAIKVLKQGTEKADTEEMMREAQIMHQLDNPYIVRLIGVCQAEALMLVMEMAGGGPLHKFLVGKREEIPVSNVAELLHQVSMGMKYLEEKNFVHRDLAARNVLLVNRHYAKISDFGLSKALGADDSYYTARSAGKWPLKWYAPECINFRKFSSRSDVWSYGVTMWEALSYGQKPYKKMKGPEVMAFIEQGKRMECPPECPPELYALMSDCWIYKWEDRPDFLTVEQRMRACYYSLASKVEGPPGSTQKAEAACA

In the case of `C=CC(=O)Nc1cc(CNc2nc(Nc3ccc(N4CCOCC4)c(OC)c3)c(C(N)=O)c3nccn23)ccc1Cl`, the inhibition [1] is reported as over 90%, the Activity [2] is reported as “Active” and the Activity [3] is reported as “Active”. The IC50 [4] was 14.6 nM.
